Laboratory results as given in article PMC4910395 (Bioorganic & medicinal chemistry, 2015).
Structures can show the parent of a compound that is named as a salt. Where two headings read alike, the source gives them in different places.

Key:
[1] = target: NMDA receptor (NR), channel binding site labeled with [^3H]MK-801 (Rattus norvegicus, UniProt P35439+Q00959+Q00960); assay: Inhibition of [^3H]MK-801 binding to rat cortical membranes; conditions: for [^3H]MK-801 Ratio IC50 (30 µM spm)/IC50 (no spm): mean ratio, spermine sensitivity; for IC50: in presence of 30 µM spermine
Chain of NMDA receptor (NR), channel binding site labeled with [^3H]MK-801 (Q00959 23-1464, other chains not shown): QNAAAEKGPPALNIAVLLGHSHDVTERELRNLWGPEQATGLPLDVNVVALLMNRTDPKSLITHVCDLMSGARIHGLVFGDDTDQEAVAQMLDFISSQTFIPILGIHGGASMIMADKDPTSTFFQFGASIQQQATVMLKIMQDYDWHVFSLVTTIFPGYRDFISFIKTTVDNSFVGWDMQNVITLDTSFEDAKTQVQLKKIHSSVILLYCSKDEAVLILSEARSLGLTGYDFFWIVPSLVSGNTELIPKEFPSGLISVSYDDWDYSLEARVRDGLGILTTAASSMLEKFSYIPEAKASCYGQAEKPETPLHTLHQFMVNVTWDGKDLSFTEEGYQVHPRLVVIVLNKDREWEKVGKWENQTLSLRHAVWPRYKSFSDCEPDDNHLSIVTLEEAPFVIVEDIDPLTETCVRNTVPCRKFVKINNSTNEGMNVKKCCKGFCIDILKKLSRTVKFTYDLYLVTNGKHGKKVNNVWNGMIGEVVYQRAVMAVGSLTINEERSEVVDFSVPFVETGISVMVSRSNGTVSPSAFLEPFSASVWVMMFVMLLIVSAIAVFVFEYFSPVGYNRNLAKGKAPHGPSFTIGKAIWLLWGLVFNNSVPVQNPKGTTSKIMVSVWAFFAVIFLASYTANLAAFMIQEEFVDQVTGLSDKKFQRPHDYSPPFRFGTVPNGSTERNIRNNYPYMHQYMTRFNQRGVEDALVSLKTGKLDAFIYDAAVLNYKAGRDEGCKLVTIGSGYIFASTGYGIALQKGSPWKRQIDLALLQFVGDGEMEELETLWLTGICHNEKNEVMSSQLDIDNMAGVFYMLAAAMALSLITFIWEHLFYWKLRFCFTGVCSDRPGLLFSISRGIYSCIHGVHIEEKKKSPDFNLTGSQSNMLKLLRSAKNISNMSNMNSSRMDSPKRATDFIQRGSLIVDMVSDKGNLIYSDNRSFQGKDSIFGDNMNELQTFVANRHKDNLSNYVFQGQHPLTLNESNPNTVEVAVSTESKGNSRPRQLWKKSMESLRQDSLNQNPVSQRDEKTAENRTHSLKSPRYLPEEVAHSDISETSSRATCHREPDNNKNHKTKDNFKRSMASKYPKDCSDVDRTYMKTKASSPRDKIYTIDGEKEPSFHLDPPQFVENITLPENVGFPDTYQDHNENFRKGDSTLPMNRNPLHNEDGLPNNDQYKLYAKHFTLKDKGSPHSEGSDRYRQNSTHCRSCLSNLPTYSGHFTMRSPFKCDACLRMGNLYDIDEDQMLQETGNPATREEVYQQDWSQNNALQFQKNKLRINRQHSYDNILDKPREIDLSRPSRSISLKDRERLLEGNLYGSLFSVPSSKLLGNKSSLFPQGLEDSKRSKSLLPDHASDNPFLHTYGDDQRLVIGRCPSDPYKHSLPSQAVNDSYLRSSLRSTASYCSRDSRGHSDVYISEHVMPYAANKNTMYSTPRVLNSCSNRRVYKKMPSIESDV
Chain of NMDA receptor (NR), channel binding site labeled with [^3H]MK-801 (Q00960 27-1482, other chains not shown): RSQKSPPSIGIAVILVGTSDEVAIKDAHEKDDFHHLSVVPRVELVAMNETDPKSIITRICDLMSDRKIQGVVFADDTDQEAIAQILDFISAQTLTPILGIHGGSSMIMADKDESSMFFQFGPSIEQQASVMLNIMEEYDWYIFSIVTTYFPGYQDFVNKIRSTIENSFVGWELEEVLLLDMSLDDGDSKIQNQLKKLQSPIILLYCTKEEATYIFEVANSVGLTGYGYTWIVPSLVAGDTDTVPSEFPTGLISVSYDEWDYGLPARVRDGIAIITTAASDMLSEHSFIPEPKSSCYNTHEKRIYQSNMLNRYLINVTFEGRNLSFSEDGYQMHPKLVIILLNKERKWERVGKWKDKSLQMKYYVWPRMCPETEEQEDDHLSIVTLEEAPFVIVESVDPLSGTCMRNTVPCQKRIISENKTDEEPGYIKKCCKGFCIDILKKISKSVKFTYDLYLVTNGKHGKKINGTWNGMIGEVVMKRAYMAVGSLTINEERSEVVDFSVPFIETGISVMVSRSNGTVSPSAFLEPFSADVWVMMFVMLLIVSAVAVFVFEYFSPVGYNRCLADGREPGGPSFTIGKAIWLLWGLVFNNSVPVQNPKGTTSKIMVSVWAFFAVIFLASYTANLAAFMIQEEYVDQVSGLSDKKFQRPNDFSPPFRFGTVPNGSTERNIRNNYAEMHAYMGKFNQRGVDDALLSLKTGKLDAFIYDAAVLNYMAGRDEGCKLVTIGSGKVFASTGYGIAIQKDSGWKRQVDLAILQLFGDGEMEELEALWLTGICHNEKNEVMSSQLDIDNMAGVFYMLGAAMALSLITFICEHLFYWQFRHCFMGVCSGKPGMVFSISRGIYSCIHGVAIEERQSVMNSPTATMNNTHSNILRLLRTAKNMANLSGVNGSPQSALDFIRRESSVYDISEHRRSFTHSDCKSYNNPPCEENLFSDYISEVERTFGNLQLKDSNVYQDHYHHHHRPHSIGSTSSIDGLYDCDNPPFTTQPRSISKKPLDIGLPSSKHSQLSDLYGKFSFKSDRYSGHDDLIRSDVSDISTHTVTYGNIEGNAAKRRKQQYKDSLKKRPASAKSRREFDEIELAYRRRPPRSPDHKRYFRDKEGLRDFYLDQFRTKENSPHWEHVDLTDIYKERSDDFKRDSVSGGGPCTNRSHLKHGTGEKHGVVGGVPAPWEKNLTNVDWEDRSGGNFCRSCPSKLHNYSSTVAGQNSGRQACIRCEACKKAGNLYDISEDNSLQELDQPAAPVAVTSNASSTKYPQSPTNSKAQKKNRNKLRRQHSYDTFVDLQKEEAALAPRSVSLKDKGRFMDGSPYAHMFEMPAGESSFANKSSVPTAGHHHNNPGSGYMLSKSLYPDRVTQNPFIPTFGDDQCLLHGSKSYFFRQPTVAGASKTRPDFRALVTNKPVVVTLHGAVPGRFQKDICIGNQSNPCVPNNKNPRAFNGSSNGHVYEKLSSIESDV

[2] = target: T1, NMDA receptor (NR), [^3H]ifenprodil binding site (Rattus norvegicus, UniProt P35439+Q00960); conditions: pH 7.4
T1 sequence (Q00960 27-1482, other chains not shown): as above

[3] = target: T1, NMDA receptor (NR), [^3H]ifenprodil binding site; assay: biochemical
[4] = target: NMDA receptor, [^3H]MK-801 binding; conditions: read-out: IC50, inhibition of [^3H]MK-801 binding to rat brain membranes; 5, 4 and 3 methylene groups between the oxygens; cited from earlier work
NRs in native membranes = conditions: native membranes from rat frontoparietal cortex and hippocampus; cited from earlier work
[5] = read-out: [^3H]MK-801 IC50 ± SD (n), 30 µM spm
[6] = [^3H]MK-801 IC50 ± SD (n), 30 µM spm

| [^3H]MK-801 Ratio IC50 (30 µM spm)/IC50 (no spm) [1] | Compound | further results |
| --- | --- | --- |
| 0.97 (2) | N=C(N)c1ccc(NC(=O)c2cccc(C(=O)Nc3ccc(C(=N)N)cc3)c2)cc1 [compound 61] | – |
| 26.2 (2) | N=C(N)c1ccc(N2CCN(c3ccc(C(=N)N)cc3)CC2)cc1 [compound 16] | – |
| – | 1,5-Bis(1-amidino-3-methoxyphenylamino)pentane dihydrochloride [compound 9] | IC50 [2]: 4.54 µM |
| – | N=C(N)c1ccc(OCc2ccc(COc3ccc(C(=N)N)cc3)cc2)cc1 [compound 59] | IC50 [3]: 16.8 µM |
| 4.26 (2) | N=C(N)c1ccc(-c2ccc(-c3ccc(-c4ccc(C(=N)N)o4)s3)s2)o1 [compound 75] | – |
| 2.56 (2) | CC/N=C(\N)c1ccc(-c2ccc(-c3ccc(/C(N)=N/CC)cc3)o2)cc1 [compound 70] | – |
| 16.8 (2) | CC(C)(C)/N=C(\N)c1ccc(N2CCCN(c3ccc(/C(N)=N/C(C)(C)C)cc3)CC2)cc1 [compound 27] | – |
| 11.8 (2) | CCN(CCN(CC)c1ccc(C(=N)N)cc1)c1ccc(C(=N)N)cc1 [compound 38] | – |
| 17.2 (2) | N=C(N)c1ccc(NCCCCNc2ccc(C(=N)N)cc2)cc1 [compound 41] | – |
| 30.2 (2) | CN(CCNc1ccc(C(=N)N)cc1)c1ccc(C(=N)N)cc1 [compound 35] | – |
| 21.8 (2) | CCCNC(=N)c1ccc(N2CCN(c3ccc(C(=N)NCCC)cc3)CC2)cc1 [compound 19] | – |
| 9.72 (2) | N=C(NCCCO)c1ccc(N2CCCN(c3ccc(/C(N)=N/CCCO)cc3)CC2)cc1 [compound 31] | – |
| 21.8 (2) | N=C(NC1CC1)c1ccc(N2CCN(c3ccc(C(=N)NC4CC4)cc3)CC2)cc1 [compound 18] | – |
| – | N=C(N)c1ccc(OCc2ccccc2COc2ccc(C(=N)N)cc2)cc1 [compound 57] | IC50 [3]: 2.05 µM |
| 33.6 (2) | N=C(N)NCCCCNC(=N)N [Arcaine, reference compound] | – |
| 5.26 (2) | N=C(N)c1ccc(NCCCCCCNc2ccc(C(=N)N)cc2)cc1 [compound 42] | – |

| [^3H]MK-801 Ratio IC50 (30 µM spm)/IC50 (no spm) [1] | Compound | further results |
| --- | --- | --- |
| 4.14 (2) | N=C(N)c1ccc(-c2ccc(-c3nc4ccc(C(=N)N)cc4[nH]3)s2)cc1 [compound 74] | – |
| 1.85 (2) | N=C(N)c1ccc(C(=O)Nc2cccc(NC(=O)c3ccc(C(=N)N)cc3)n2)cc1 [compound 67] | – |
| 4.63 (2) | N=C(N)c1ccc(-c2ccc(-c3ccc(C(=N)N)cc3)c(F)c2)cc1 [compound 73] | – |
| 0.96 (2) | N=C(N)c1ccc(NC(=O)c2ccc(C(=O)Nc3ccc(C(=N)N)cc3)cc2)cc1 [compound 62] | – |
| 1.22 (2) | N=C(N)c1ccc(NC(=O)c2cccc(C(=O)Nc3ccc(C(=N)N)cc3)n2)cc1 [compound 65] | – |
| 30.1 (2) | c1cc(N2CCCN(c3ccc(C4=NCCN4)cc3)CC2)ccc1C1=NCCN1 [compound 32] | – |
| – | N=C(N)c1ccc(NC(=O)CCCC(=O)Nc2ccc(C(=N)N)cc2)cc1 [compound 45] | Fold weaker than pentamidine ([1]; no spermine): 100 fold; IC50 [3]: 65.6 µM |
| – | N,N-Bis[2-(1-amidino-3-methoxyphenoxy)ethyl]-4-methylbenzenesulfonamide dihydrochloride [compound 15] | IC50 [2]: 0.84 µM; IC50 [1, 5]: 28.7 ± 4.4 µM |
| – | CC(C(O)c1ccc(O)cc1)N1CCC(Cc2ccccc2)CC1 (stereo not drawn) [ifenprodil] | Share of NRs blocked with high affinity (NRs in native membranes): 23% |
| 20.2 ± 6.1 (3) | N=C(N)c1ccc(SCCOCCSc2ccc(C(=N)N)cc2)cc1 [compound 5] | IC50 [1, 6]: 23.8 ± 2.7 µM |
| 1.50 (2) | N=C(N)c1ccc(-c2ccc(-c3ccc(C(=N)N)s3)s2)s1 [compound 71, 5,5″-Diamidino-2,2′:5′,2″-terthiophene dihydrochloride] | – |
| 4.59 (2) | N=C(N)c1ccc(C(=O)NCCCCCCNC(=O)c2ccc(C(=N)N)cc2)cc1 [compound 55] | – |
| 20.9 (2) | CN(CCN(C)c1ccc(C(=N)N)cc1)c1ccc(C(=N)N)cc1 [compound 37] | – |
| 3.46 (2) | N=C(N)c1ccc(NC(=O)CCCCC(=O)Nc2ccc(C(=N)N)cc2)cc1 [compound 46] | – |
| 17.0 (2) | N=C(N)c1ccc(NCCCNc2ccc(C(=N)N)cc2)cc1 [compound 39] | – |

| Compound | [^3H]MK-801 Ratio IC50 (30 µM spm)/IC50 (no spm) [1] | further results |
| --- | --- | --- |
| N=C(N)c1ccc(NCCCCCCCCNc2ccc(C(=N)N)cc2)cc1 [compound 44] | 4.37 (2) | – |
| 1,5-Bis[(1-amidinophenyl)N-methylamino]-3-oxapentane [compound 11] | 15.2 ± 2.2 (3) | IC50 [2]: 21.9 ± 5.2 µM; IC50 [1, 5]: 12.5 ± 1.8 µM |
| N=C(N)c1ccc(OCCCCCOc2ccc(C(=N)N)cc2)cc1 [compound 1, Pentamidine, reference compound] | 9.1 ± 2.5 (7) | IC50 [1, 6]: 24.9 ± 5.7 µM; IC50 [3]: 32.5 µM; IC50 [4]: 2.59 µM |
| N=C(N)c1ccc(NCCCCCCCNc2ccc(C(=N)N)cc2)cc1 [compound 43, 1,7-Bis[(1-amidinophenyl)amino]heptane dihydrochloride] | 5.37 (2) | – |
| N=C(N)c1ccc(OC(=O)c2ccc(C(=O)Oc3ccc(C(=N)N)cc3)cc2)cc1 [compound 60] | 3.98 (2) | IC50 [3]: 38.6 µM |
